The values that follow come from patent US20030154517A1, “Efficiency agrobacterium-mediated wheat transformation method” (priority 2001, published 2003).

Several values for one entry are separate records, joined by “and”; a condition that tells them apart may be missing. Equal entries are not always repeated. Where two headings read alike, the source gives them in different places.

In experiment [1] the test system is immature embryos of wheat. The experiment can be described thus: Agrobacterium-mediated wheat transformation, nptII (G418/kanamycin) selection (transformation efficiency). Type of experiment: cell-based, Triticum aestivum L. From the text:
(§1) Immature embryos of wheat (Triticum aestivum L) cv Bobwhite were isolated from the immature caryopsis (wheat spikelets) 12-15 days after pollination, and cultured on CM4C (Table 2) for 1-8 days, most typically for 4-6. The embryos without embryogenic callus were selected for Agrobacterium inoculation.
A disarmed Agrobacterium strain C58 (ABI) harboring a binary vector was used for all the experiments. […] The Agrobacterium cells were resuspended in the inoculation medium and the density was adjusted to an OD660 of 1. […] An equal amount of the Agrobacterium cell suspension was added such that the final concentration of Agrobacterium cells was an OD660 of 0.5. In most experiments, pluronic F68 was added to the inoculation mixture at a final concentration of 0.01%. The ratio between the Agrobacterium and immature embryos (IEs) was about 10 mL: 20-200 IEs. The conditions for inoculation were temperatures from about 23° C.-26° C. with a duration from about 5-60 minutes.
(§2) After the inoculation period, the remaining Agrobacterium cells were removed from the explants by using the in-house vacuum equipment. A piece of sterile Whatman No. 1 filter paper (to fit the size of the petri plate) was placed in each of 60×15 or 60×20 mm petri dishes without additional liquid or agar-supplemented media. Two hundred microliters of sterile water was placed in the middle of the filter paper. After 2-3 minutes, the inoculated immature embryos were placed in the plates. Usually, 20-50 explants are grouped as one stack (about 1 cm in size and 60-80 mg/stack), with 4-5 stacks on each plate. The plates were immediately parafilmed and then co-cultivated in the dark at 24° C.-26° C. for 2-3 days.
For nptII selection, immature embryos were isolated, precultured, inoculated, and co-cultured as previously described. After the 3-day co-culture, embryos were transferred to delay culture (solid CM4C2D) media (CM4C media as in Table 2 with 2 mg/L 2,4-D) with 500 mg/L carbenicillin for 7 days in the dark at 25° C. Selection was done in liquid CM4C media (as in Table 2 without the Phytagel) with 100 mg/L carbenicillin and 20 mg/L G418 on a support for 7 days in the dark followed by 7 days in the light (16 hr photoperiod), at 25° C. The calli were then transferred to liquid MMS0.2C media (as in Table 2 without the gelling agent) with 100 mg/L carbenicillin and 25 mg/L G418 on a support for 2 weeks at 25° C. with a 16 hr photoperiod. After 2 weeks, the calli were transferred to liquid MMSOC media (as in Table 2 without the gelling agent) with 100 mg/L carbenicillin and 25 mg/L G418 on a support for 2 to 4 weeks at 25° C. with a 16 hr photoperiod. Plantlets were transferred to solid MMSOC media with 100 mg/L carbenicillin and 25 mg/L G418 in sundae cups for 1 to 4 weeks at 25° C. with a 16 hr photoperiod.

The test system of experiment [2] is immature embryos of wheat (Triticum aestivum L) cv Bobwhite. The experiment can be described thus: Agrobacterium-mediated wheat transformation, glyphosate selection (transformation efficiency). Type of experiment: cell-based.
Experiment [3] has the same test system. The description is as above. Type of experiment: cell-based.
From the text: as §1
A disarmed Agrobacterium strain C58 (ABI) harboring a binary vector was used for all the experiments. For the control experiments, cultures of Agrobacterium were initiated from glycerol stocks or from a freshly streaked plate and grown overnight at 26° C.-28° C. with shaking (approximately 150 rpm) to mid-log phase (about OD660=1-1.5) in liquid LB medium, pH 7.0 (Miller, 1972) containing 50 mg/L kanamycin, 50 mg/L streptomycin and spectinomycin, and 25 mg/L chloramphenicol with 200 μM acetosyringone (AS). The Agrobacterium cells were resuspended in the inoculation medium and the density was adjusted to an OD660 of 1. The immature embryos cultured in CM4C medium were transferred into sterile petri plates (16×20 mm) or wells of a 6-well cell culture plate (Costar Corporation, Cambridge, Mass.) containing 10 mL of inoculation medium per petri plate or 5 mL per cell culture cluster plate. An equal amount of the Agrobacterium cell suspension was added such that the final concentration of Agrobacterium cells was an OD660 of 0.5. In most experiments, pluronic F68 was added to the inoculation mixture at a final concentration of 0.01%. The ratio between the Agrobacterium and immature embryos (IEs) was about 10 mL: 20-200 IEs. The conditions for inoculation were temperatures from about 23° C.-26° C. with a duration from about 5-60 minutes.
as §2
After a 3-day co-cultivation, the Agrobacterium-infected precultured immature embryos (PCIE) and embryogenic calli were transferred to CM4C medium (Table 2) supplemented with 500 mg/L carbenicillin and cultured for about seven days. This “delay” medium could also contain glyphosate as discussed in Example 4.
The explants were then transferred to CM4C selection medium with 2 mM glyphosate and 500 mg/L carbenicillin for one week in the dark. All the calli were transferred to MMS0.2C (Table 2) supplemented with 0.1 mM glyphosate and 250 mg/L carbenicillin (first regeneration medium) for an additional two weeks of selection with lighting conditions of about 80 μE. […] All the embryogenic calli were transferred to the second regeneration medium MMS0C (Table 2) supplemented with 500 mg/L carbenicillin and 0.02 mM glyphosate. Aromatic amino acids including I-tryptophan, L-tyrosine, and I-phenylalanine (10^−7 mM/amino acid) were added to this medium to facilitate the selection. These tissues were transferred to fresh media every two weeks. […] Once the root system was established, the plants were transferred to soil and subsequently assayed. […]
This is another data set of the same source.

[4] abbreviates: Table 19: compound at 2 μM in second regeneration stage (MMSOC media).
Setting [5] is: Table 19: compound at 20 μM in second regeneration stage (MMSOC media).
Where [6] appears, read: Table 19 compounds at the concentrations tested (2 and/or 20 μM) in MMSOC.

As for `[Cl][Cu][Cl]` [Copper chloride], in experiment [1] (setting [4]), the “% TE” value amounted to 16.8% and the Independent transgenic events/explants was 37/220. In addition, in experiment [1] (setting [5]), the “% TE” value is 24.2% and the Independent transgenic events/explants is 55/227.

On to `O=S(=O)([O-])[O-].[Mn+2]` [Manganese sulfate], for which, in experiment [1] (setting [5]), the “% TE” value is 4.2% and the Independent transgenic events/explants is 8/189. Further, the “effectiveness at increasing TE” value in experiment [1] (setting [6]) is reported as “not effective”.

With `O=S(=O)([O-])[O-].[Zn+2]` [Zinc sulfate], in experiment [1], the Independent transgenic events/explants is 12/219 and 17/107; the “effectiveness at increasing TE” value is “not effective”. In addition, the “% TE” value in experiment [1] (setting [4]) came to 5.5%. In addition, the “% TE” value in experiment [1] (setting [5]) came to 15.9%.

On to `[Cl][Co][Cl]` [Cobalt chloride], for which, in experiment [1] (setting [5]), the “% TE” value stood at 9.2% and the Independent transgenic events/explants is on record as 19/207. For the same compound, the “effectiveness at increasing TE” value in experiment [1] (setting [6]) is “more effective than the negative control”.

Consider `O=C(O)CNCP(=O)(O)O` [glyphosate], for which the Efficiency % is 1.5% and 7.9% and 2.8% and 3.7% and 3.0% in experiment [2] (0.5 mM gly in MMS0.2C first regeneration medium, per experiment and Total, listed as gly); 5.0% and 5.3% and 4.2% and 2.5% in experiment [2] (1.0 mM gly in MMS0.2C first regeneration medium, per experiment and Total, listed as gly); 7.7% and 10.7% and 13.7% in experiment [2] (Table 9b treatment 2: MMS0.2C + 0.5 Gly, two experiments and Total, listed as Gly); 4.7% and 1.6% and 2.3% and 0.0% and 2.9% in experiment [3] (0.1 mM gly in MMS0.2C first regeneration medium, per experiment and Total, listed as gly); 4.8% and 6.8% and 8.9% in experiment [3] (Table 9b treatment 1: MMS0.2C + 0.1 Gly, two experiments and Total, listed as Gly). In addition, the TE % in experiment [2] (selection 10 days in CM4C + 2 mM glyphosate, per experiment and Total) is 8.6% and 1.25% and 6.4% and 4.8% and 7.3% and 5.3%; in experiment [3] (0.02 mM glyphosate in preculture and delay culture media (CM4C), per experiment and Total, listed as gly) it was 3.7% and 3.8% and 4.9% and 8.3% and 2.4%; in experiment [3] (selection 7 days in CM4C + 2 mM glyphosate, per experiment and Total) it was 5.2% and 1.5% and 4.4% and 3.1% and 4% and 2.2%. Besides, the “transformation efficiency” value in experiment [3] (glyphosate at 0.02 mM in preculture and delay culture media) is reported as “significantly improved”.

For Copper acetate, in experiment [1], the “% TE” value is reported as 23.0% and the Independent transgenic events/explants was 53/230.

With `[Cl-].[Cl-].[Mg+2]` [Magnesium chloride], in experiment [1], the “% TE” value turned out to be 3.0%, the Independent transgenic events/explants is 7/231 and the “effectiveness at increasing TE” value is “not effective”.
